Assays:
Experiment in all cases: relative viability (nuclei count vs DMSO), 5 days (fraction); higher = more cells survive
ABC-1 = test system: ABC-1
Summary of the method: (§1)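 Medians of duplicate plates are given as relative viability. That measure is the nuclei count in treated wells divided by the count in vehicle wells. Counts were taken on 4× images of lung cancer cell lines in 1536-well plates, 5 days after pin-tool dosing the day after seeding with one drug alone or a fixed anchor-drug dose plus five library-drug doses (not always all listed) in √10 steps.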

COR-L23 = test system: COR-L23
Summary of the method: as §1

EPLC-272H = test system: EPLC-272H
Summary of the method: as §1

HARA = test system: HARA
Summary of the method: as §1

HCC-15 = test system: HCC-15
Summary of the method: as §1

HCC-44 = test system: HCC-44
Summary of the method: as §1

HOP-62 = test system: HOP-62
Summary of the method: as §1

LC-2-ad = test system: LC-2-ad
Summary of the method: as §1

LU99A = test system: LU99A
Summary of the method: as §1

NCI-H1355 = test system: NCI-H1355
Summary of the method: as §1

NCI-H1651 = test system: NCI-H1651
Summary of the method: as §1

NCI-H1915 = test system: NCI-H1915
Summary of the method: as §1

NCI-H1993 = test system: NCI-H1993
Summary of the method: as §1

NCI-H2023 = test system: NCI-H2023
Summary of the method: as §1

NCI-H2085 = test system: NCI-H2085
Summary of the method: as §1

NCI-H2126 = test system: NCI-H2126
Summary of the method: as §1

NCI-H2347 = test system: NCI-H2347
Summary of the method: as §1

NCI-H650 = test system: NCI-H650
Summary of the method: as §1

NCI-H838 = test system: NCI-H838
Summary of the method: as §1

PC-14 = test system: PC-14
Summary of the method: as §1

SW 1573 = test system: SW 1573
Summary of the method: as §1

UMC-11 = test system: UMC-11
Summary of the method: as §1

CC(=O)O[C@@]12CO[C@@H]1C[C@H](O)[C@@]1(C)C(=O)[C@H](O)C3=C(C)[C@@H](OC(=O)[C@H](O)[C@@H](NC(=O)OC(C)(C)C)c4ccccc4)C[C@@](O)([C@@H](OC(=O)c4ccccc4)[C@H]21)C3(C)C [Docetaxel] + CCNC(=O)c1noc(-c2cc(C(C)C)c(O)cc2O)c1-c1ccc(CN2CCOCC2)cc1 [Luminespib] (partner 0.01 µM)
relative viability (ABC-1; first compound 0.0002 µM): 0.619 | relative viability (ABC-1; first compound 0.000632 µM): 0.704 | relative viability (ABC-1; first compound 0.002 µM): 0.231 | relative viability (ABC-1; first compound 0.006325 µM): 0.352 | relative viability (ABC-1; first compound 0.02 µM): 0.338 | relative viability (COR-L23; first compound 0.0002 µM): 0.632 | relative viability (COR-L23; first compound 0.000632 µM): 0.622 | relative viability (COR-L23; first compound 0.002 µM): 0.131 | relative viability (COR-L23; first compound 0.006325 µM): 0.128 | relative viability (COR-L23; first compound 0.02 µM): 0.101 | relative viability (EPLC-272H; first compound 0.0002 µM): 0.133 | relative viability (EPLC-272H; first compound 0.000632 µM): 0.316 | relative viability (EPLC-272H; first compound 0.002 µM): 0.205 | relative viability (EPLC-272H; first compound 0.006325 µM): 0.0836 | relative viability (EPLC-272H; first compound 0.02 µM): 0.119 | relative viability (HARA; first compound 0.0002 µM): 0.46 | relative viability (HARA; first compound 0.000632 µM): 0.124 | relative viability (HARA; first compound 0.002 µM): 0.0629 | relative viability (HARA; first compound 0.006325 µM): 0.0587 | relative viability (HARA; first compound 0.02 µM): 0.0441 | relative viability (HCC-15; first compound 0.0002 µM): 0.35 | relative viability (HCC-15; first compound 0.000632 µM): 0.303 | relative viability (HCC-15; first compound 0.002 µM): 0.173 | relative viability (HCC-15; first compound 0.006325 µM): 0.182 | relative viability (HCC-15; first compound 0.02 µM): 0.12 | relative viability (HCC-44; first compound 0.0002 µM): 0.986 | relative viability (HCC-44; first compound 0.000632 µM): 0.901 | relative viability (HCC-44; first compound 0.002 µM): 0.35 | relative viability (HCC-44; first compound 0.006325 µM): 0.289 | relative viability (HCC-44; first compound 0.02 µM): 0.171 | relative viability (HOP-62; first compound 0.0002 µM): 0.938 | relative viability (HOP-62; first compound 0.000632 µM): 0.744 | relative viability (HOP-62; first compound 0.002 µM): 0.509 | relative viability (HOP-62; first compound 0.006325 µM): 0.282 | relative viability (LC-2-ad; first compound 0.0002 µM): 0.777 | relative viability (LC-2-ad; first compound 0.000632 µM): 0.544 | relative viability (LC-2-ad; first compound 0.002 µM): 0.503 | relative viability (LC-2-ad; first compound 0.006325 µM): 0.445 | relative viability (LU99A; first compound 0.0002 µM): 0.218 | relative viability (LU99A; first compound 0.000632 µM): 0.245 | relative viability (LU99A; first compound 0.002 µM): 0.23 | relative viability (LU99A; first compound 0.006325 µM): 0.193 | relative viability (LU99A; first compound 0.02 µM): 0.2 | relative viability (NCI-H1355; first compound 0.0002 µM): 0.784 | relative viability (NCI-H1355; first compound 0.000632 µM): 0.66 | relative viability (NCI-H1355; first compound 0.002 µM): 0.599 | relative viability (NCI-H1355; first compound 0.006325 µM): 0.255 | relative viability (NCI-H1355; first compound 0.02 µM): 0.194 | relative viability (NCI-H1651; first compound 0.0002 µM): 0.821 | relative viability (NCI-H1651; first compound 0.000632 µM): 0.842 | relative viability (NCI-H1651; first compound 0.002 µM): 0.258 | relative viability (NCI-H1651; first compound 0.006325 µM): 0.27 | relative viability (NCI-H1651; first compound 0.02 µM): 0.12 | relative viability (NCI-H1915; first compound 0.0002 µM): 0.838 | relative viability (NCI-H1915; first compound 0.000632 µM): 0.796 | relative viability (NCI-H1915; first compound 0.002 µM): 0.467 | relative viability (NCI-H1915; first compound 0.006325 µM): 0.141 | relative viability (NCI-H1915; first compound 0.02 µM): 0.0759 | relative viability (NCI-H1993; first compound 0.0002 µM): 0.771 | relative viability (NCI-H1993; first compound 0.000632 µM): 0.783 | relative viability (NCI-H1993; first compound 0.002 µM): 0.616 | relative viability (NCI-H1993; first compound 0.006325 µM): 0.481 | relative viability (NCI-H1993; first compound 0.02 µM): 0.446 | relative viability (NCI-H2023; first compound 0.0002 µM): 0.682 | relative viability (NCI-H2023; first compound 0.000632 µM): 0.346 | relative viability (NCI-H2023; first compound 0.002 µM): 0.113 | relative viability (NCI-H2023; first compound 0.006325 µM): 0.105 | relative viability (NCI-H2023; first compound 0.02 µM): 0.0645 | relative viability (NCI-H2085; first compound 0.0002 µM): 0.378 | relative viability (NCI-H2085; first compound 0.000632 µM): 0.454 | relative viability (NCI-H2085; first compound 0.002 µM): 0.446 | relative viability (NCI-H2085; first compound 0.006325 µM): 0.322 | relative viability (NCI-H2085; first compound 0.02 µM): 0.341 | relative viability (NCI-H2126; first compound 0.0002 µM): 0.914 | relative viability (NCI-H2126; first compound 0.000632 µM): 0.739 | relative viability (NCI-H2126; first compound 0.002 µM): 0.591 | relative viability (NCI-H2126; first compound 0.006325 µM): 0.403 | relative viability (NCI-H2126; first compound 0.02 µM): 0.255 | relative viability (NCI-H2347; first compound 0.0002 µM): 0.513 | relative viability (NCI-H2347; first compound 0.000632 µM): 0.631 | relative viability (NCI-H2347; first compound 0.002 µM): 0.39 | relative viability (NCI-H2347; first compound 0.006325 µM): 0.311 | relative viability (NCI-H2347; first compound 0.02 µM): 0.34 | relative viability (NCI-H650; first compound 0.0002 µM): 0.796 | relative viability (NCI-H650; first compound 0.000632 µM): 0.519 | relative viability (NCI-H650; first compound 0.002 µM): 0.212 | relative viability (NCI-H650; first compound 0.006325 µM): 0.18 | relative viability (NCI-H650; first compound 0.02 µM): 0.111 | relative viability (NCI-H838; first compound 0.0002 µM): 0.389 | relative viability (NCI-H838; first compound 0.000632 µM): 0.3 | relative viability (NCI-H838; first compound 0.002 µM): 0.138 | relative viability (NCI-H838; first compound 0.006325 µM): 0.147 | relative viability (NCI-H838; first compound 0.02 µM): 0.112 | relative viability (PC-14; first compound 0.0002 µM): 0.199 | relative viability (PC-14; first compound 0.000632 µM): 0.162 | relative viability (PC-14; first compound 0.002 µM): 0.116 | relative viability (PC-14; first compound 0.02 µM): 0.127 | relative viability (SW 1573; first compound 0.0002 µM): 0.165 | relative viability (SW 1573; first compound 0.000632 µM): 0.211 | relative viability (SW 1573; first compound 0.002 µM): 0.0935 | relative viability (SW 1573; first compound 0.006325 µM): 0.137 | relative viability (SW 1573; first compound 0.02 µM): 0.0617 | relative viability (UMC-11; first compound 0.0002 µM): 1.02 | relative viability (UMC-11; first compound 0.000632 µM): 0.917 | relative viability (UMC-11; first compound 0.002 µM): 0.406 | relative viability (UMC-11; first compound 0.006325 µM): 0.271 | relative viability (UMC-11; first compound 0.02 µM): 0.183
